In publication PMC13284649, “Discovery of the PARP1 Inhibitors from Natural Compounds Using Structure-Based Virtual Screening and Bioactivity Evaluation” (Medicinal Chemistry (Shariqah (United Arab Emirates), 2025):
Read-outs that look alike come from different tables or passages of the source.

Molecular target: PARP1 (poly ADP-ribose polymerase 1) (Homo sapiens, UniProt P09874)
Assay: PARP1 enzymatic ELISA (histone-coated plates, biotinylated NAD+, HRP luminescence)
Format: biochemical

PARP1 (poly ADP-ribose polymerase 1), sequence (P09874 2-1014): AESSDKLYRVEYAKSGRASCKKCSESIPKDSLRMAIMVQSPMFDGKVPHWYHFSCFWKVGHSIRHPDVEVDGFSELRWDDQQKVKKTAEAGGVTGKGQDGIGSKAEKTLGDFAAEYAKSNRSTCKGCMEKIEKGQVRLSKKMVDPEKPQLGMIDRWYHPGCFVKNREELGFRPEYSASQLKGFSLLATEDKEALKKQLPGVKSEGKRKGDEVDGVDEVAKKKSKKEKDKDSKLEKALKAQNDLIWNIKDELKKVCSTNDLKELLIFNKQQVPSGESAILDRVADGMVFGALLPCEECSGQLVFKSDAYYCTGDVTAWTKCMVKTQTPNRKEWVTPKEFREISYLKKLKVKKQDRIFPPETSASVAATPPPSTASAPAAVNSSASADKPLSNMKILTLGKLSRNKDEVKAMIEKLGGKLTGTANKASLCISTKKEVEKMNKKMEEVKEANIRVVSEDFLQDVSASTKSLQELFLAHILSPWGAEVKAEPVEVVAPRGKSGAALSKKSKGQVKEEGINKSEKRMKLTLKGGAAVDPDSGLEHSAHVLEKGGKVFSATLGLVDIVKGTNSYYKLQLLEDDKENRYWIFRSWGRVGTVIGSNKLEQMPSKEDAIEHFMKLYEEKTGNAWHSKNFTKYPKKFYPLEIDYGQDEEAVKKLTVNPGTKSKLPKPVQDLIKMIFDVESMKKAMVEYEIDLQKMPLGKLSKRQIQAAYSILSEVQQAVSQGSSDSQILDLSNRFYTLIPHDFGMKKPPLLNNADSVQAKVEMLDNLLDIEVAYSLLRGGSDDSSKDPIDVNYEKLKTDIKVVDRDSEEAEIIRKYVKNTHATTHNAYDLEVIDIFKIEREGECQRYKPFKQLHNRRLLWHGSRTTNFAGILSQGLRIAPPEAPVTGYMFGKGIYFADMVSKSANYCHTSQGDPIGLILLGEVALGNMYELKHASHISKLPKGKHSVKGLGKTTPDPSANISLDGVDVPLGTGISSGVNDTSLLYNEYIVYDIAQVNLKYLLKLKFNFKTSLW

| IC50 (read-out: IC50) | Compound | IC50 |
| --- | --- | --- |
|  | COc1ccc2cc3[n+](cc2c1OC)CCc1cc(O)c(O)cc1-3 [compound 2, demethyleneberberine] | 2 ± 0.8 µM |
|  | COc1c2ccoc2nc2c(O)cccc12 [compound 3, 8-hydroxy dictanmnine] | 44.9 ± 8.4 µM |
| 67.2 ± 7.6 µM | COc1ccc2ccc(=O)oc2c1CC(O)C(C)(C)O (stereo not shown) [compound 4, meranzin hydrate] |  |
|  | COc1ccc2ccc(=O)oc2c1CC=C(C)C [compound 5, osthol] | 76.5 ± 12.4 µM |
